# Measurements from ChEMBL document CHEMBL1201862, “PubChem BioAssay data set” (2004).
#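 How tested: cells in 96-well plates exposed to compound for 48 hours at five concentrations. GI50 marks 50% less growth.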 Activity calls are given as the source filed them. Rule as the data show it: active = GI50 up to about 1.1 µM and inactive = higher.
# Legend:
# Assay in all cases: NCI anticancer screen, dose series, 48 h
# [1] = tested on: 786-0
# [2] = tested on: A549
# [3] = tested on: ACHN
# [4] = tested on: CCRF-CEM
# [5] = tested on: COLO 205
# [6] = tested on: DU-145
# [7] = tested on: EKVX
# [8] = tested on: HCC 2998
# [9] = tested on: HCT-116
# [10] = tested on: HCT-15
# [11] = tested on: HL-60
# [12] = tested on: HOP-62
# [13] = tested on: HOP-92
# [14] = tested on: HT-29
# [15] = tested on: Hs-578T
# [16] = tested on: IGROV-1
# [17] = tested on: K562
# [18] = tested on: KM12
# [19] = tested on: M14
# [20] = tested on: MCF7
# [21] = tested on: MDA-MB-231
# [22] = tested on: MDA-MB-435
# [23] = tested on: MOLT-4
# [24] = tested on: Malme-3M
# [25] = tested on: NCI-H226
# [26] = tested on: NCI-H23
# [27] = tested on: NCI-H460
# [28] = tested on: NCI/ADR-RES
# [29] = tested on: OVCAR-4
# [30] = tested on: OVCAR-5
# [31] = tested on: OVCAR-8
# [32] = tested on: RPMI-8226
# [33] = tested on: RXF 393
# [34] = tested on: SF-268
# [35] = tested on: SF-295
# [36] = tested on: SF-539
# [37] = tested on: SK-MEL-28
# [38] = tested on: SK-MEL-5
# [39] = tested on: SK-OV-3
# [40] = tested on: SN12C
# [41] = tested on: SNB-19
# [42] = tested on: SNB-75
# [43] = tested on: SR
# [44] = tested on: SW-620
# [45] = tested on: T47D
# [46] = tested on: TK-10
# [47] = tested on: U-251
# [48] = tested on: UACC-257
# [49] = tested on: UACC-62
# [50] = tested on: UO-31
# [51] = tested on: CAKI-1
# [52] = tested on: LOX IMVI
# [53] = tested on: NCI-H522
# [54] = tested on: OVCAR-3
# [55] = tested on: PC-3
# [56] = tested on: SK-MEL-2
compound,measurement,setting,value
N#CCN1CCCCCc2ccccc21,GI50,[1],> 100 µM (inactive)
same,GI50,[2],> 100 µM (inactive)
same,GI50,[3],> 100 µM (inactive)
same,GI50,[4],> 100 µM (inactive)
same,GI50,[5],> 100 µM (inactive)
same,GI50,[6],> 100 µM (inactive)
same,GI50,[7],> 100 µM (inactive)
same,GI50,[8],> 100 µM (inactive)
same,GI50,[9],> 100 µM (inactive)
same,GI50,[10],> 100 µM
same,GI50,[11],> 100 µM (inactive)
same,GI50,[12],> 100 µM (inactive)
same,GI50,[13],> 100 µM (inactive)
same,GI50,[14],> 100 µM (inactive)
same,GI50,[15],> 100 µM (inactive)
same,GI50,[16],> 100 µM (inactive)
same,GI50,[17],> 100 µM (inactive)
same,GI50,[18],> 100 µM (inactive)
same,GI50,[19],> 100 µM (inactive)
same,GI50,[20],> 100 µM (inactive)
same,GI50,[21],> 100 µM (inactive)
same,GI50,[22],> 100 µM (inactive)
same,GI50,[23],> 100 µM (inactive)
same,GI50,[24],> 100 µM (inactive)
same,GI50,[25],> 100 µM (inactive)
same,GI50,[26],> 100 µM (inactive)
same,GI50,[27],> 100 µM (inactive)
same,GI50,[28],> 100 µM (inactive)
same,GI50,[29],> 100 µM (inactive)
same,GI50,[30],> 100 µM (inactive)
same,GI50,[31],> 100 µM (inactive)
same,GI50,[32],> 100 µM (inactive)
same,GI50,[33],> 100 µM (inactive)
same,GI50,[34],> 100 µM (inactive)
same,GI50,[35],53.5 µM (inactive)
same,GI50,[36],> 100 µM (inactive)
same,GI50,[37],> 100 µM (inactive)
same,GI50,[38],> 100 µM (inactive)
same,GI50,[39],> 100 µM (inactive)
same,GI50,[40],> 100 µM (inactive)
same,GI50,[41],> 100 µM (inactive)
same,GI50,[42],> 100 µM (inactive)
same,GI50,[43],> 100 µM (inactive)
same,GI50,[44],> 100 µM (inactive)
same,GI50,[45],> 100 µM (inactive)
same,GI50,[46],> 100 µM (inactive)
same,GI50,[47],> 100 µM (inactive)
same,GI50,[48],> 100 µM (inactive)
same,GI50,[49],> 100 µM (inactive)
same,GI50,[50],> 100 µM (inactive)
C/C(=C\COP(=O)(O)OP(=O)(O)O)CCCOCc1ccccc1,GI50,[1],> 100 µM (inactive)
same,GI50,[2],> 100 µM (inactive)
same,GI50,[3],> 100 µM (inactive)
same,GI50,[51],> 100 µM (inactive)
same,GI50,[4],< 0.01 µM (active)
same,GI50,[5],> 100 µM (inactive)
same,GI50,[6],> 100 µM (inactive)
same,GI50,[7],> 100 µM (inactive)
same,GI50,[9],> 100 µM (inactive)
same,GI50,[10],> 100 µM
same,GI50,[11],61.7 µM (inactive)
same,GI50,[12],> 100 µM (inactive)
same,GI50,[14],> 100 µM (inactive)
same,GI50,[15],> 100 µM (inactive)
same,GI50,[16],> 100 µM (inactive)
same,GI50,[17],> 100 µM (inactive)
same,GI50,[18],> 100 µM (inactive)
same,GI50,[52],> 100 µM (inactive)
same,GI50,[19],> 100 µM (inactive)
same,GI50,[20],> 100 µM (inactive)
same,GI50,[21],> 100 µM (inactive)
same,GI50,[22],> 100 µM (inactive)
same,GI50,[23],> 100 µM (inactive)
same,GI50,[24],> 100 µM (inactive)
same,GI50,[25],> 100 µM (inactive)
same,GI50,[26],> 100 µM (inactive)
same,GI50,[27],> 100 µM (inactive)
same,GI50,[53],> 100 µM (inactive)
same,GI50,[28],> 100 µM (inactive)
same,GI50,[54],> 100 µM (inactive)
same,GI50,[29],> 100 µM (inactive)
same,GI50,[30],> 100 µM (inactive)
same,GI50,[31],> 100 µM (inactive)
same,GI50,[55],> 100 µM (inactive)
same,GI50,[32],0.207 µM (active)
same,GI50,[33],> 100 µM (inactive)
same,GI50,[34],> 100 µM (inactive)
same,GI50,[35],> 100 µM (inactive)
same,GI50,[36],> 100 µM (inactive)
same,GI50,[37],> 100 µM (inactive)
same,GI50,[56],> 100 µM (inactive)
same,GI50,[38],46.5 µM (inactive)
same,GI50,[39],> 100 µM (inactive)
same,GI50,[40],> 100 µM (inactive)
same,GI50,[41],> 100 µM (inactive)
same,GI50,[42],> 100 µM (inactive)
same,GI50,[43],> 100 µM (inactive)
same,GI50,[44],> 100 µM (inactive)
same,GI50,[45],> 100 µM (inactive)
same,GI50,[46],> 100 µM (inactive)
same,GI50,[47],> 100 µM (inactive)
same,GI50,[48],38.4 µM (inactive)
same,GI50,[49],> 100 µM (inactive)
same,GI50,[50],> 100 µM (inactive)
CC(=O)OCC(=O)[C@@]1(O)CC[C@H]2[C@@H]3CCC4=CC(=O)C=C[C@]4(C)[C@@]3(F)[C@@H](O)C[C@@]21C [ISOFLUPREDONE ACETATE],GI50,[55],65.3 µM (inactive)
